pIC50: −log10 of the molar value. Read-outs that look alike come from different tables or passages of the source.
Legend:
Type in all cases: biochemical
[1] = biological target: T1, recombinant human DHODH (Homo sapiens, UniProt Q02127); assay: Inhibition assay of DHODH activity (human enzyme); details: for IC50: class symbols (in nM)
T1 construct: provided by Prof; M. Löffler, Marburg, Germany (gift, not purchased)
Procedure: (§1) The standard assay mixture contained 50 μM decyclo ubichinone, 100 μM dihydroorotate, 60 μM 2,6-dichloroindophenol, as well as 20 mU DHODH. The volume activity of the recombinant enzyme used was 30 U/ml. Measurements were conducted in 50 mM TrisHCl (150 mM KCl, 0,1% Triton X-100, pH. 8,0) at 30° C. in a final volume of 1 ml. The components were mixed, and the reaction was started by adding dihydroorotate. The course of reaction was followed by spectrophotometrically measuring the decrease in absorption at 600 nm for 2 min.
(§2) Inhibitory studies were conducted in a standard assay with additional variable amounts of inhibitor.
(§3) These investigations were carried out with recombinant human as well as with recombinant murine DHODH provided by Prof. M. Löffler, Marburg, Germany [M. Löffler, Chem. Biol. Interact.

[2] = biological target: T2, recombinant murine DHODH (Mus musculus, UniProt O35435); assay: Inhibition assay of DHODH activity (murine enzyme); details: numeric values or words
T2 construct: provided by Prof; M. Löffler, Marburg, Germany (gift, not purchased)
Procedure: as §1, §2, §3

[3] = biological target: DHODH (Rattus norvegicus, UniProt Q63707); assay: Inhibition assay of DHODH activity (rat enzyme, head printed 'rate'); details: for IC50: class symbols (in nM), read-out: rate IC50-Value
Procedure: as §1, §2

[4] = recombinant human DHODH, numeric values, read-out: human IC50-Value
[5] = recombinant human DHODH, read-out: human IC50-Value

T1 sequence (Q02127 whole entry): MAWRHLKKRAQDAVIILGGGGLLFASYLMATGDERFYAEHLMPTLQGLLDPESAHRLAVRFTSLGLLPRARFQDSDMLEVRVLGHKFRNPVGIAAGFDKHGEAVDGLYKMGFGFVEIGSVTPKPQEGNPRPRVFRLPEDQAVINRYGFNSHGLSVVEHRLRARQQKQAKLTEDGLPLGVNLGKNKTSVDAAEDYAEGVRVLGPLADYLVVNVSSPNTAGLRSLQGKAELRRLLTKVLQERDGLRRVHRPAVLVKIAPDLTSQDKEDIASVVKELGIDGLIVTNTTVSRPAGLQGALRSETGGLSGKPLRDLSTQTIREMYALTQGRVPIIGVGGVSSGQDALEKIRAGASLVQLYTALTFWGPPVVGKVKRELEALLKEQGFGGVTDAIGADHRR
T2 sequence (O35435 whole entry): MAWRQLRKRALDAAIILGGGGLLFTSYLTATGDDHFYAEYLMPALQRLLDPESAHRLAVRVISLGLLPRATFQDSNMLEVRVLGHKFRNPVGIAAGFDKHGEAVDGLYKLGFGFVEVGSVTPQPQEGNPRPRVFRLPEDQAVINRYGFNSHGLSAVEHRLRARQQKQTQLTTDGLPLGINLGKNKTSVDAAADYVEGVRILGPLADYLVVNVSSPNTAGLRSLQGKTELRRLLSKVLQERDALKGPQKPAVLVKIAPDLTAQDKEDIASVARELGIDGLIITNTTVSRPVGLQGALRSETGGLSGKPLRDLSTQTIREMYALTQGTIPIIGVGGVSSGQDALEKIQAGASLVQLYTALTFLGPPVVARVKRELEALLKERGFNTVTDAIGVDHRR
DHODH, sequence (Q63707 whole entry): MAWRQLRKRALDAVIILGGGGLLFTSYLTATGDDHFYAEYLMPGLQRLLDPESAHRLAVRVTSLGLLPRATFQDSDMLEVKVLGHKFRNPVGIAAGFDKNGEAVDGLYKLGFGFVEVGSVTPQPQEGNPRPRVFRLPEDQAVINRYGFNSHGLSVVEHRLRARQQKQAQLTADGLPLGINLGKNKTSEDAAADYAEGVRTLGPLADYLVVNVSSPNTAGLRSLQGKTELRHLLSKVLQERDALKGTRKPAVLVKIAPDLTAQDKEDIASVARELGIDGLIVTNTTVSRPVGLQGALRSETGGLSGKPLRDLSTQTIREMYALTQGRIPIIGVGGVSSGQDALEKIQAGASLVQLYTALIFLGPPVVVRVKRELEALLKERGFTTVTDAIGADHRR

Compound | IC50 [1, 5] [nM] | also measured
O=C(O)C1=C(C(=O)Nc2ccc3c(c2)S(=O)(=O)c2cc(NC(=O)C4=C(C(=O)O)CCC4)ccc2C3)CCC1 [Compound 05] |  | pIC50 [1, 4]: 5.96; murine IC50-Value [2]: weakley active
CCOc1ccccc1-c1cc(F)c(NC(=O)C2=C(C(=O)O)CCC2)c(F)c1 [Compound 62] | < 800 | IC50 [3]: < 800 nM
O=C(O)C1=C(C(=O)Nc2ccc(Oc3ccc(Cl)cc3)cc2)CCC1 [Compound 61] | > 1500 | 
COc1ccccc1-c1cc(Cl)c(NC(=O)C2=C(C(=O)O)CCC2)c(Cl)c1 [Compound 58] | < 800 | IC50 [3]: 800 to 1500 nM
COc1cc(-c2ccccc2F)ccc1NC(=O)C1=C(C(=O)O)CCC1 [Compound 36] | < 800 | 
Cc1cc(-c2cc(F)c(NC(=O)C3=C(C(=O)O)CCC3)c(F)c2)ccc1F [Compound 30] | < 800 | 
O=C(O)C1=C(C(=O)Nc2ccc(Oc3ccccc3)cc2)CCC1 [Compound 50] | < 800 | IC50 [3]: < 800 nM
CS(=O)(=O)c1ccc(-c2ccc(NC(=O)C3=C(C(=O)O)CCC3)cc2Cl)cc1 [Compound 20] | 800 to 1500 | 
O=C(O)C1=C(C(=O)Nc2ccc(OCc3ccccc3)c(Cl)c2)CCC1 [Compound 72] | < 800 | 
CCOc1cccc(-c2ccc(NC(=O)C3=C(C(=O)O)CCC3)c(OC)c2)c1 [Compound 38] | < 800 | 
COc1ccccc1-c1ccc(NC(=O)C2=C(C(=O)O)CCC2)c([N+](=O)[O-])c1 [Compound 32] | < 800 | 
O=C(O)C1=C(C(=O)Nc2c(F)c(F)cc(F)c2F)CCC1 [Compound 06] |  | pIC50 [1, 4]: 5.89
O=C(O)C1=C(C(=O)Nc2ccc(C(F)(F)F)cc2)CCC1 [Compound 08] |  | pIC50 [1, 4]: 5.80; pIC50 [2]: 6.03
O=C(O)C1=C(C(=O)Nc2ccc(OCc3ccccc3C(F)(F)F)c(Cl)c2)CCC1 [Compound 68] | < 800 | IC50 [3]: > 1500 nM
COc1ccc(-c2ccc(NC(=O)C3=C(C(=O)O)CCC3)cc2C)cc1 [Compound 23] | < 800 | 
O=C(O)C1=C(C(=O)Nc2c(F)c(F)c(C(F)(F)F)c(F)c2F)CCC1 [Compound 07] |  | pIC50 [1, 4]: 5.80
COc1ccc(-c2ccc(NC(=O)C3=C(C(=O)O)CCC3)cc2Cl)cc1 [Compound 19] | < 800 | IC50 [3]: < 800 nM
O=C(O)C1=C(C(=O)Nc2ccc(-c3ccccc3)cc2)CS(=O)(=O)C1 [Compound 49] | > 1500 | 
O=C(O)C1=C(C(=O)Nc2c(F)cc(-c3cccc(OC(F)(F)F)c3)cc2F)CCC1 [Compound 64] | < 800 | 
COc1ccccc1-c1c(F)c(F)c(NC(=O)C2=C(C(=O)O)CCC2)c(F)c1F [Compound 56] |  | pIC50 [3]: > 6.10; pIC50 [1]: > 6.10
COc1ccccc1-c1ccc(NC(=O)C2=C(C(=O)O)CCC2)c(C)c1 [Compound 57] | < 800 | IC50 [3]: 800 to 1500 nM
COc1ccccc1-c1ccc(NC(=O)C2=C(C(=O)O)CCC2)c(C(F)(F)F)c1 [Compound 55] | > 1500 | 

Compound | IC50 [1, 5] [nM] | also measured
COc1cc(-c2cccc(OC(F)(F)F)c2)ccc1NC(=O)C1=C(C(=O)O)CCC1 [Compound 35] | < 800 | 
O=C(O)C1=C(C(=O)Nc2ccc(Oc3ccccc3)cc2)COC1 [Compound 51] | > 1500 | 
COc1ccccc1-c1ccc(NC(=O)C2=C(C(=O)O)CCC2)cc1 [Compound 15] | < 800 | 
O=C(O)C1=C(C(=O)Nc2cc(C(F)(F)F)cc(C(F)(F)F)c2)CCC1 [Compound 03] |  | pIC50 [1, 4]: 6.00
O=C(O)C1=C(C(=O)Nc2ccc(-c3cccc(F)c3)cc2F)CCC1 [Compound 27] | < 800 | 
COc1ccc(-c2cc(F)c(NC(=O)C3=C(C(=O)O)CCC3)c(F)c2)c(OC)c1 [Compound 67] | < 800 | 
O=C(O)C1=C(C(=O)Nc2ccc(-c3cc4ccccc4s3)cc2)CCC1 [Compound 44] | < 800 | 
O=C(O)C1=C(C(=O)Nc2c(F)cc(-c3ccccc3Cl)cc2F)CCC1 [Compound 65] | < 800 | 
O=C(O)C1=C(C(=O)Nc2ccc(-c3cc4ccccc4s3)cc2F)CCC1 [Compound 45] | < 800 | 
COc1cc(-c2ccc(NC(=O)C3=C(C(=O)O)CCC3)c(OC)c2)ccc1NC(=O)C1=C(C(=O)O)CCC1 [Compound 48] | > 1500 | 
N#Cc1cccc(-c2ccc(NC(=O)C3=C(C(=O)O)CCC3)cc2Cl)c1 [Compound 18] | < 800 | 
O=C(O)C1=C(C(=O)Nc2ccc(OCc3c(F)cccc3F)cc2)CCC1 [Compound 16] | < 800 | 
Cc1cccc(Sc2ccc(NC(=O)C3=C(C(=O)O)CCC3)cc2)c1 [Compound 42] | < 800 | IC50 [3]: < 800 nM
O=C(O)C1=C(C(=O)Nc2cc(Br)c(OCc3ccccc3)c(Br)c2)CSC1 [Compound 29] |  | pIC50 [3]: 5.82 to 6.10; pIC50 [1]: > 6.10
O=C(O)C1=C(C(=O)Nc2ccc(-c3ccccc3Cl)cc2)CSC1 [Compound 41] | < 800 | IC50 [3]: > 1500 nM
COc1ccccc1-c1ccc(NC(=O)C2=C(C(=O)O)CCC2)cc1Cl [Compound 54] | < 800 | IC50 [3]: < 800 nM
O=C(O)C1=C(C(=O)Nc2ccc(F)c(F)c2F)CCC1 [Compound 10] |  | pIC50 [1, 4]: 5.17
COc1cc(-c2ccccc2Cl)ccc1NC(=O)C1=C(C(=O)O)CCC1 [Compound 34] | < 800 | 
O=C(O)C1=C(C(=O)Nc2cccc(C(F)(F)F)c2)CCC1 [Compound 09] |  | pIC50 [1, 4]: 5.17; pIC50 [2]: 4.26
O=C(O)C1=C(C(=O)Nc2ccc(-c3cccc(OC(F)(F)F)c3)cc2)CCC1 [Compound 43] | < 800 | 
Nc1ccc(Oc2ccc(NC(=O)C3=C(C(=O)O)CCCC3)cc2)cc1 [Compound 11] |  | pIC50 [1, 4]: 5.15
COc1ccc(Oc2ccc(C(F)(F)F)cc2NC(=O)C2=C(C(=O)O)CCC2)cc1 [Compound 59] | > 1500 | 

Compound | IC50 [1, 5] [nM] | also measured
O=C(O)C1=C(C(=O)NCCCCc2ccccc2)CCC1 [Compound 70] | > 1500 | 
N#Cc1ccc(-c2ccc(NC(=O)C3=C(C(=O)O)CCC3)cc2Cl)cc1 [Compound 21] | 800 to 1500 | 
CCOc1ccccc1-c1ccc(NC(=O)C2=C(C(=O)O)CCC2)c(F)c1 [Compound 17] | < 800 | 
O=C(O)C1=C(C(=O)Nc2ccc(-c3cccnc3)c(Cl)c2)CCC1 [Compound 28] | 800 to 1500 | 
O=C(O)C1=C(C(=O)Nc2ccc(Oc3ccc(F)cc3F)cc2)CCC1 [Compound 60] | 800 to 1500 | 
O=C(O)C1=C(C(=O)Nc2ccc(-c3ccccc3Cl)cc2)CCC1 [Compound 14] | < 800 | IC50 [3]: > 1500 nM
O=C(O)C1=C(C(=O)NC2CC2c2ccccc2)CCC1 (stereo not shown) [Compound 71] | > 1500 | 
COc1cc(-c2ccccc2)ccc1NC(=O)C1=C(C(=O)O)CCC1 [Compound 33] | < 800 | 
CCOc1cccc(-c2ccc(NC(=O)C3=C(C(=O)O)CCC3)c(F)c2)c1 [Compound 46] | < 800 | IC50 [3]: > 1500 nM
COc1ccc(-c2ccc(NC(=O)C3=C(C(=O)O)CCC3)c(OC)c2)c(OC)c1 [Compound 37] | < 800 | 
COc1ccc(-c2ccc(NC(=O)C3=C(C(=O)O)CCC3)cc2Cl)cn1 [Compound 22] | < 800 | 
COc1cccc(-c2ccc(NC(=O)C3=C(C(=O)O)CCC3)c(OC)c2)c1 [Compound 39] | < 800 | 
O=C(O)C1=C(C(=O)Nc2c(F)cc(-c3ccccc3F)cc2F)CCC1 [Compound 66] | < 800 | 
O=C(O)C1=C(C(=O)Nc2ccc(OCc3ccccc3F)c(Cl)c2)CCC1 [Compound 74] | < 800 | 
COc1ccccc1-c1ccc(NC(=O)C2=C(C(=O)O)CCC2)c(Cl)c1 [Compound 53] | < 800 | IC50 [3]: 800 to 1500 nM
COc1cccc(-c2ccc(NC(=O)C3=C(C(=O)O)CCC3)c(F)c2)c1 [Compound 26] |  | pIC50 [3]: < 5.82
O=C(O)C1=C(C(=O)Nc2ccc(-c3ccccc3F)cc2)CCC1 [Compound 13] | < 800 | IC50 [3]: > 1500 nM
O=C(O)C1=C(C(=O)Nc2cc(Br)c(OCc3cc(F)ccc3F)c(Br)c2)CCC1 [Compound 24] | < 800 | IC50 [3]: > 1500 nM
CCOc1cccc(-c2cc(F)c(NC(=O)C3=C(C(=O)O)CCC3)c(F)c2)c1 [Compound 63] | < 800 | IC50 [3]: < 800 nM
O=C(O)C1=C(C(=O)Oc2ccc(-c3ccccc3)cc2)CCC1 [Compound 75] | > 1500 | 
CN(C(=O)C1=C(C(=O)O)CCC1)c1ccc(-c2ccccc2)cc1 [Compound 73] | > 1500 | 
